Assay results reported in patent US8377884B2, “Variants of C-type natriuretic peptides” (Biomarin Pharmaceutical Inc., priority 2007, dated 2013).
Bridge positions count the residues as written; N and C are the ends. Peptide text beside a SMILES is read from it. * marks the point of attachment. MeO(CH2CH2O)23CH2CH2CO = COCCOCCOCCOCCOCCOCCOCCOCCOCCOCCOCCOCCOCCOCCOCCOCCOCCOCCOCCOCCOCCOCCOCCOCCC(=O)*

How the values were obtained:
[1] = target: neutral endopeptidase (NEP) (Homo sapiens, UniProt P08473); test: In vitro neutral endopeptidase (NEP) cleavage assay; conditions: human, pH 7
Sequence of neutral endopeptidase (NEP) (P08473 whole entry): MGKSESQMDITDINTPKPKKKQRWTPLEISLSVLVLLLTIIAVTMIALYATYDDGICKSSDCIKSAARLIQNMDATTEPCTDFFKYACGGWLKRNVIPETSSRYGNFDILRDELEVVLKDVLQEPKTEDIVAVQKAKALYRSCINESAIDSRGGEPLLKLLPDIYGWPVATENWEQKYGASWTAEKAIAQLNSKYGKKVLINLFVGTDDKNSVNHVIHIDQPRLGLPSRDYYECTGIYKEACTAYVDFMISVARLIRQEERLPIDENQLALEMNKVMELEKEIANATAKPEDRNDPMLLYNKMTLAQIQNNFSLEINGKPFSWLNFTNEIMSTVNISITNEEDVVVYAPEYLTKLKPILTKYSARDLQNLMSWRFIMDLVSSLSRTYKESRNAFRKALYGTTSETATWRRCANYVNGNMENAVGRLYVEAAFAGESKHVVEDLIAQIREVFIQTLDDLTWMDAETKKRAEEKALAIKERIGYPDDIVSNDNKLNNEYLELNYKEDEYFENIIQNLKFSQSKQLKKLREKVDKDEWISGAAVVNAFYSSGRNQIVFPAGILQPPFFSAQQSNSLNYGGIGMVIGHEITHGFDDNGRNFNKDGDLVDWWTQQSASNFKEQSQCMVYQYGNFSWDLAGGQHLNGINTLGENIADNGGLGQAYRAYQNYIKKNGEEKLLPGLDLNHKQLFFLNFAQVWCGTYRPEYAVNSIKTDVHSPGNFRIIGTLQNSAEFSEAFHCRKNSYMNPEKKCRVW
Outline: (§1)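 Recombinant human NEP (1 ug/mL final) incubated with 100 uM CNP variant in 0.1 M Tris, pH 7, at 37° C for various times, then quenched with EDTA (10 mM final) and heat. Samples reduced and analysed by HPLC and mass spectrometry. Half-life derived from loss of intact variant over time.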

Recombinant human NEP = Recombinant human NEP (Homo sapiens, UniProt P08473); test: as above; conditions: NEP digestion for […] in vitro
Sequence of Recombinant human NEP (P08473 whole entry): as above
Outline: as §1

NPR-B [2] = target: T1, NPR-B (Mus musculus, UniProt Q6VVW5); test: Stimulation of cGMP production in NIH3T3 cells; type: cell-based, Murine; conditions: NIH3T3 cells, normalized to cell number and cGMP production with 1 uM wtCNP22; for cGMP response relative to 1 uM CNP22 (%) at 0.01 µM: 10 nM natriuretic peptide, read-out: cGMP Response rel. to 1 uM CNP22, 10 nM; for cGMP response relative to 1 uM CNP22 (%) at 1 µM: 1 uM natriuretic peptide, read-out: cGMP Response rel. to 1 uM CNP22, 1 uM
T1 construct: Murine NIH3T3 cells express endogenously the CNP signaling receptor, NPR-B; endogenous in cells; host or cells: NIH3T3 (murine fibroblasts)
T1 sequence (Q6VVW5 17-1047): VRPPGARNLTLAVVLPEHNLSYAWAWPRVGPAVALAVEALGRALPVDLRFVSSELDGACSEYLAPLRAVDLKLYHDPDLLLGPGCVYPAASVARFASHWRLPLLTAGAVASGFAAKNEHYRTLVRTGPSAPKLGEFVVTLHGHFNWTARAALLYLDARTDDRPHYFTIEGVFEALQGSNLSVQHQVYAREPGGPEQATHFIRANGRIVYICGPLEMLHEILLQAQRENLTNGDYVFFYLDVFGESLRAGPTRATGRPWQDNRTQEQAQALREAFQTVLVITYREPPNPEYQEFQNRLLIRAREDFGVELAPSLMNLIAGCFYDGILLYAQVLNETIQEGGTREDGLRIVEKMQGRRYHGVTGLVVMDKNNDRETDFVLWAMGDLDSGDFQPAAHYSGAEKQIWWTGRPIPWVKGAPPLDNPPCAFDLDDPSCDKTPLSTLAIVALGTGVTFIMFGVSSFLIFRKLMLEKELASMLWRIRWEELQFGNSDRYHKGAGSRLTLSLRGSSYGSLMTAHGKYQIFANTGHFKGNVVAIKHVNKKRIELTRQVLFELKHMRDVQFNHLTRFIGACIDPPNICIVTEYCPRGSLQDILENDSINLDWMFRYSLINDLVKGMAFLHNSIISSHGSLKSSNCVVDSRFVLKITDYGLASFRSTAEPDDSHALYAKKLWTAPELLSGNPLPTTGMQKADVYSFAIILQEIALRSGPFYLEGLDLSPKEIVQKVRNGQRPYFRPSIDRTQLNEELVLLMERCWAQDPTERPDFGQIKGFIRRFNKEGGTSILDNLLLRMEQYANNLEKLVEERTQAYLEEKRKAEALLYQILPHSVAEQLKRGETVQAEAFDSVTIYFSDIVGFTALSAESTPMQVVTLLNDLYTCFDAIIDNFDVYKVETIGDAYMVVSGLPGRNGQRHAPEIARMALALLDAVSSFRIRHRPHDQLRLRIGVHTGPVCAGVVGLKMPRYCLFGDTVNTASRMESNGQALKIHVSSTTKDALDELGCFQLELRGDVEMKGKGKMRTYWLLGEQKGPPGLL

NPR-B [3] = target: NPR-B (Homo sapiens, UniProt P20594); conditions: read-out: affinity to NPR-B; cited from earlier work
Sequence of NPR-B (Homo sapiens, UniProt P20594) (P20594 23-1047, species assumed): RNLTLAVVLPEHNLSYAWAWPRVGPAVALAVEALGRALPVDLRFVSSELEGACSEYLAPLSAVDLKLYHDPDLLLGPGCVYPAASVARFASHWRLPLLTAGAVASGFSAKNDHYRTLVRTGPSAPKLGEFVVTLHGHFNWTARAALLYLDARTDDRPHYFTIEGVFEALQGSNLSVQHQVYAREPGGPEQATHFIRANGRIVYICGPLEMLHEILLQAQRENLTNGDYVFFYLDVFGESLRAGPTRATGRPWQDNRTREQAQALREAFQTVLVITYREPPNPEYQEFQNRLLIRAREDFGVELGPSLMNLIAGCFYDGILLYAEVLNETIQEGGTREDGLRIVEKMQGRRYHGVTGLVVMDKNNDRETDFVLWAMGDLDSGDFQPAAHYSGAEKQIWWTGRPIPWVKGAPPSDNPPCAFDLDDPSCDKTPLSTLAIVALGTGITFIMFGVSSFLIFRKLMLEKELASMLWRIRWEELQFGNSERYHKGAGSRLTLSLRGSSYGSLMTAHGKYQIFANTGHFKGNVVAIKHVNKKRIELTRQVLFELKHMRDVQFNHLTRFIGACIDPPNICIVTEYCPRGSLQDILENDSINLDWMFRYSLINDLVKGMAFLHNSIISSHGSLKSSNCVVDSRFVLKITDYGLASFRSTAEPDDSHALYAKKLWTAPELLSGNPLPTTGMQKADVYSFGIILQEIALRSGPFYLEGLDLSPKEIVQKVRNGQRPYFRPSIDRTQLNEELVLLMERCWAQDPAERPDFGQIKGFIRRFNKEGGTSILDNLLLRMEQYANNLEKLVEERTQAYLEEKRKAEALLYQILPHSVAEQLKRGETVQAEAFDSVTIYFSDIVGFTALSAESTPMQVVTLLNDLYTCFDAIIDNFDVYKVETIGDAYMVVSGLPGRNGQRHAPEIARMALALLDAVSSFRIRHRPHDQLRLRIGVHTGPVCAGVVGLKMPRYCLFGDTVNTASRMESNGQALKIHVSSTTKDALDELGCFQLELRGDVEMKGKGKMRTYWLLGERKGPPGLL

[4] = Pharmacokinetics in normal rats after single i.v. or s.c. administration; conditions: male, rat
Protocol: Studies were conducted in normal rats to evaluate the pharmacokinetics (PK) profile of CNP22 and certain CNP variants and the time courses of plasma cGMP concentration after single intravenous (i.v.) or subcutaneous (s.c.) administration of the CNP peptides. Plasma CNP immunoreactivity was determined by using a competitive radioimmunoassay (RIA) with an anti-CNP rabbit polyclonal antibody. Plasma cGMP concentration was determined by RIA using a commercially available kit (YAMASA cyclic GMP Assay kit, YAMASA Corporation).
Normal male rats, 7-8 weeks of age, were used. Recombinant wild-type CNP22, CNP37 and PEO24-CNP27(Arg4) (i.e., PEO24-GANRR-CNP22(K4R)) were evaluated. A dosage of 20 nmol/kg of each CNP peptide as a solution in 5% mannitol was intravenously injected once into the tail, or a dosage of 50 nmol/kg of each CNP peptide as a solution in 0.03 mol/L acetic acid buffer solution, pH 4.0, containing 1% (w/v) benzyl alcohol and 10% (w/v) sucrose, was subcutaneously injected once into the back.
Plasma CNP immunoreactivity was determined by the competitive RIA using anti-CNP rabbit polyclonal antibody. Standard and QC samples were prepared. Fifty uL of the standard, QC and assay samples were added, respectively, to test tubes containing 50 uL of RIA buffer. Diluted anti-CNP rabbit polyclonal antibody (100 uL) was added to the tubes. All tubes were kept at 4° C. overnight. ^125I-[Tyr^0]-CNP22 solution (100 uL) and rabbit IgG solution (100 uL) were added and left at approximately 4° C. overnight. One milliliter of anti-rabbit IgG goat serum containing 10% polyethylene glycol was added, vortexed and left at approximately 4° C. for at least 1 hour, and then the insoluble fraction was precipitated by centrifugation. After aspiration of the supernatant, the amount of radiation (gamma line) in the sediment was measured by a gamma-counter. Each sample was measured in duplicate, and the mean was adopted as the value determined.
Plasma CNP immunoreactivity was employed for pharmacokinetics (PK) analysis. PK analysis was performed using WINNONLIN® Professional (Pharsight Corporation). The PK profiles of CNP22, CNP37 and PEO24-CNP27(Arg4) after i.v. administration were calculated using PK parameters such as concentration at 0 hour (C0: extrapolation, pmol/mL), total body clearance (CLtot: mL/min/kg), distribution volume at steady state (Vdss: mL/kg), area under the plasma concentration-time curve (AUC: pmol·min/mL), mean residence time (MRT: min), and half-life (T1/2: min). The PK profiles of the CNP peptides after s.c. administration were calculated using PK parameters such as maximum plasma concentration (Cmax: pmol/mL), time to reach Cmax (Tmax: min), area under the plasma concentration-time curve (AUC: pmol·min/mL), mean residence time (MRT: min), and half-life (T1/2: min).

in vivo = conditions: FVB/N, mouse, plasma, iv, 100 nmol/kg
Protocol: To determine CNP variants having increased NEP resistance, for efficacy study in FGFR3^ach mice (see Example 11), a pharmacokinetics (PK) study is carried out that compares the pharmacokinetics properties of CNP variants to wild-type CNP22. The FGFR3^ach mouse is a mutant mouse model of achondroplasia, containing a single transgene on a background of FVB mice.
Wild-type CNP22 or variant thereof is administered as a single intravenous (i.v.) dose in 6-week old wild-type FVB mice. Exemplary PK studies were conducted using wtCNP22. Six-week old FVB/N mice were intravenously administered wtCNP22 in a single dose at 100 nmol/kg.

NPR-C = NPR-C (Homo sapiens, UniProt P17342); conditions: read-out: affinity to NPR-C; cited from earlier work
Sequence of NPR-C (P17342 27-541, species assumed): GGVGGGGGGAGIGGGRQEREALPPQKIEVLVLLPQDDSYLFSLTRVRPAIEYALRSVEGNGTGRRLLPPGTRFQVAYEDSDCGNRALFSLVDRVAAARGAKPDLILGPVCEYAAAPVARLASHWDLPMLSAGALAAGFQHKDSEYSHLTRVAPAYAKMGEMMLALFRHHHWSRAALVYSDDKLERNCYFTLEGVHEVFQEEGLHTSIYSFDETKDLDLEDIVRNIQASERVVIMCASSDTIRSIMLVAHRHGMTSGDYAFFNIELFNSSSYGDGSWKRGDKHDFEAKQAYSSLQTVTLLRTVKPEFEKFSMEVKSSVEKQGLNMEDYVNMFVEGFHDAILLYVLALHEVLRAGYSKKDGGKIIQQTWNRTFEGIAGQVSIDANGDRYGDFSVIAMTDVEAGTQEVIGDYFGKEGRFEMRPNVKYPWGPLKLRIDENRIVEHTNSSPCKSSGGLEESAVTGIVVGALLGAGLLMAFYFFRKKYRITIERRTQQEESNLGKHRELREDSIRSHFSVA

Structure (SMILES) | half-life at 100 uM [1] [min] | sites hydrolyzed on NEP digestion (Recombinant human NEP) | cGMP response relative to 1 uM CNP22 (%) at 0.01 µM (NPR-B [2]) [%] | cGMP response relative to 1 uM CNP22 (%) at 1 µM (NPR-B [2]) [%] | Kd (NPR-B [3]) [nM] | AUC ([4]; in vivo, iv, 20 nmol/kg) [nM·h] | half-life ([4]; in vivo, iv, 20 nmol/kg) [min] | bioavailability ([4]; in vivo, sc, 50 nmol/kg) [%] | half-life ([4]; in vivo, sc, 50 nmol/kg) [min] | half-life (in vivo) [min] | Kd (NPR-C) [nM] | half-life ([4]; iv, 20 nmol/kg) [min] | bioavailability ([4]; sc, 50 nmol/kg) [%] | half-life ([4]; sc, 50 nmol/kg) [min]
CC[C@H](C)[C@@H]1NC(=O)[C@H](CCCNC(=N)N)NC(=O)[C@H](CC(=O)O)NC(=O)[C@H](CC(C)C)NC(=O)[C@H](CCCCN)NC(=O)[C@H](CC(C)C)NC(=O)CNC(=O)[C@H](Cc2ccccc2)NC(=O)[C@@H](NC(=O)CNC(=O)[C@H](CCCCN)NC(=O)[C@H](CO)NC(=O)[C@H](CC(C)C)NC(=O)CN)CSSC[C@@H](C(=O)O)NC(=O)CNC(=O)[C@H](CC(C)C)NC(=O)CNC(=O)[C@H](CO)NC(=O)[C@H](CCSC)NC(=O)[C@H](CO)NC(=O)CNC1=O [CNP22, CNP-22] | 80 | all possible sites were unexpectedly hydrolyzed | 46 ± 10 | 100 ± 13 | 0.007 to 0.03 | 5.33 | 1.42 | 19 | 10 | 0.76 to 1.03 | 0.011 to 0.14 |  |  | 
CC[C@H](C)[C@@H]1NC(=O)[C@H](CCCNC(=N)N)NC(=O)[C@H](CC(=O)O)NC(=O)[C@H](CC(C)C)NC(=O)[C@H](CCCCN)NC(=O)[C@H](CC(C)C)NC(=O)CNC(=O)[C@H](Cc2ccccc2)NC(=O)[C@@H](NC(=O)CNC(=O)[C@H](CCCNC(=N)N)NC(=O)[C@H](CO)NC(=O)[C@H](CC(C)C)NC(=O)CNC(=O)[C@H](CCCNC(=N)N)NC(=O)[C@H](CCCNC(=N)N)NC(=O)[C@H](CC(N)=O)NC(=O)[C@H](C)NC(=O)CNC(=O)CCOCCOCCOCCOCCOCCOCCOCCOCCOCCOCCOCCOCCOCCOCCOCCOCCOCCOCCOCCOCCOCCOCCOCCOC)CSSC[C@@H](C(=O)O)NC(=O)CNC(=O)[C@H](CC(C)C)NC(=O)CNC(=O)[C@H](CO)NC(=O)[C@H](CCSC)NC(=O)[C@H](CO)NC(=O)CNC1=O [PEO24-GANRR-CNP22, K4R (CNP27)] ({MeO(CH2CH2O)23CH2CH2CO}-GANRRGLSRGCFGLKLDRIGSMSGLGC-OH; disulfide 11-27) | > 160 |  | 28 ± 9 | 82 ± 18 |  |  |  |  |  |  |  | 22.3 | 60 | 78.1
